Earlier results on 1 compound are cited in patent publication US20210228671A1, “EXTRACT OF VEGETATION WATERS FOR USE IN THE TREATMENT AND/OR IN THE PREVENTION OF PROSTATE CANCER” (FATTORIA LA VIALLA DI GIANNI, ANTONIO E BANDINO LO FRANCO - …, priority 2018, published 2021).

The structures appear in SMILES notation.

For the data set the following is noted: high concentrations, up to 250-500 mg/kg/day.

Regarding `OCCc1ccc(O)c(O)c1` [hydroxytyrosol], the “toxic effect of in vivo administration” value was “does not exert any toxic effect”.
